Experimental findings from patent US11136321B2, “Tricyclic compounds” (ALIGOS THERAPEUTICS, INC., priority 2019, dated 2021) are described below.

Each structure is given as a SMILES string. pEC50: −log10 of the molar value. Some results are limits rather than exact numbers.

In one assay the test system is HBV. The experiment in a line: HBV-DNA antiviral assay using HepG2.117 cells. The assay is classed as cell-based, genotype D HBV. As to conditions: Hepatitis B virus, 72 h, intracellular HBV DNA by qPCR, 3 days incubation. As for the experimental part:
The following assay procedure describes the HBV antiviral assay, using HepG2.117 cells, which carry a stably integrated genotype D HBV genome under the control of a Tet-off promoter, and intracellular HBV DNA quantification as endpoint. Cell viability is assessed in parallel by measuring the intracellular ATP content using ATPlite (Perkin Elmer).
On day 0, HepG2.117 cells (which are maintained in routine cell culture with doxycycline present in the medium at a final concentration of 1 μg/mL) were seeded in 96-well plates (white with clear bottom) at a density of 2.0×10^4 cells/well (0.1 mL/well) in medium without doxycycline to induce pgRNA transcription and subsequent formation of HBV particles. The cells were incubated at 37° C. and 5% CO2.
On day 1, medium was removed from each well, the test articles were diluted in culture medium without doxcycyline and 100 μL was added to cell culture wells (9 concentrations, 4-fold dilution). For each plate, 6 untreated (merely DMSO) wells were included. The final concentration of DMSO in the culture medium was 2%. Each plate was prepared in duplicate (one for HBV DNA extraction, one for ATPlite measurement). The cells were incubated at 37° C. and 5% CO2 for 3 days.
On day 4, cell viability was assessed using ATPlite and cell lysates were prepared for HBV DNA extraction and subsequent quantification by qPCR.
Medium was removed from each well and 100 μL of 0.33% NP-40 in H2O was added to each well. Plates were sealed, incubated at 4° C. for 5 mins, vortexed extensively and centrifuged briefly. Next, 35 μL of lysate was added to 65 μL QuickExtract DNA Extraction Solution (Epicentre) in a PCR plate for each well. PCR plate was incubated at 65° C. for 6 mins, 98° C. for 2 mins and finally cooled to 4° C. HBV DNA was then quantified by qPCR with HBV-specific primers and probes as specified in Table 1 using the Bio-Rad SSOAdvanced Universal Probes Supermix on a CFX96 machine (Bio-Rad). The PCR cycle program consisted of 95° C. for 3 mins, followed by 40 cycles at 95° C. for 10 sec and 60° C. for 30 sec.
A DNA standard was prepared by dilution of an IDT gBlock corresponding to the amplicon with concentrations ranging from 10^2 to 10^8 copies/input (i.e. per 4 μL) and used to generate a standard curve by plotting Cq values vs. HBV DNA standard concentration. The quantity of HBV DNA in each sample was determined by interpolating from the standard curve.
Cell viability was calculated as follows: % Cell viability=(luminescence value of test sample)/(average luminescence value of 2% DMSO control)×100%. HBV DNA inhibition was calculated as follows: 100−(HBV DNA copy number of test sample)/(average HBV DNA copy number of 2% DMSO control)×100%. No normalization to entecavir was required due to the excellent dynamic window of this assay. The CC50, EC50 and EC90 values were determined by dose-response curves fitted by GraphPad Prism using “log (agonist) vs. response—Variable slope”.
In general, pEC50 refers to the EC50 on a negative log10 scale, so that one unit is a factor of ten. The low end stands for a large EC50, the high end for a small EC50. `CNC(=O)c1ccc(-n2c(=O)c3c(n4ncc(Cc5ccccc5)c24)CN(C(=O)c2ccc(Br)c(Cl)c2)CC3)cc1Cl` [Compound 38, 4-[5-benzyl-12-(4-bromo-3-chloro-benzoyl)-8-oxo-2,3,7,12-tetrazatricyclo [7.4.0.0 2,6]trideca-1(9),3,5-trien-7-yl]-2-chloro-N-methyl-benzamide] showed a pEC50 of at least 7.00.

In the case of `N#Cc1cc(C(=O)N2CCc3c(n4ncc(Cc5ccccc5)c4n(-c4ccc(C(=O)NC5CC5)cc4)c3=O)C2)ccc1Br` [Compound 76, 4-[5-benzyl-12-(4-bromo-3-cyano-benzoyl)-8-oxo-2,3,7,12-tetrazatricyclo [7.4.0.0 2,6]trideca-1(9),3,5-trien-7-yl]-N-cyclopropyl-benzamide], the negative-log EC50 (pEC50) was under 5.30.

Regarding `CNC(=O)c1ccc(-n2c(=O)c3c(n4ncc(Cc5ccc(OC)cc5)c24)CN(C(=O)c2ccc(Br)c(C#N)c2)CC3)cc1` [Compound 89, 4-[12-(4-bromo-3-cyano-benzoyl)-5-[(4-methoxyphenyl)methyl]-8-oxo-2,3,7,12-tetrazatricyclo [7.4.0.0 2,6]trideca-1(9),3,5-trien-7-yl]-N-methyl-benzamide], the negative logarithm of the EC50 (pEC50) was at least 7.00.

Regarding `NC(=O)c1ccc(-n2c(=O)c3c(n4ncc(NCc5ccccc5)c24)CN(C(=O)c2ccc(Br)c(Cl)c2)CC3)cc1` [Compound 49, 4-[5-(benzylamino)-12-(4-bromo-3-chloro-benzoyl)-8-oxo-2,3,7,12-tetrazatricyclo [7.4.0.0 2,6]trideca-1(9),3,5-trien-7-yl] benzamide], the pEC50 is at least 7.00.

Compound `CNC(=O)c1ccc(-n2c(=O)c3c(n4ncc(Cc5ccc(C#N)cc5)c24)CN(C(=O)c2ccc(Br)c(Cl)c2)CC3)cc1` [Compound 43, 4-(8-(4-bromo-3-chlorobenzoyl)-3-(4-cyanobenzyl)-5-oxo-6,7,8,9-tetrahydropyrazolo[1,5-a]pyrido[4,3-e]pyrimidin-4(5H)-yl)-N-methylbenzamide] gave a pEC50 of at least 7.00.

Turning to `CNC(=O)c1ccc(-n2c(=O)c3c(n4ncc(NCc5ccccc5)c24)CN(C(=O)c2ccc(Br)c(Cl)c2)CC3)cc1` [Compound 47, 4-[5-(benzylamino)-12-(4-bromo-3-chloro-benzoyl)-8-oxo-2,3,7,12-tetrazatricyclo [7.4.0.0 2,6]trideca-1(9),3,5-trien-7-yl]-N-methyl-benzamide], the negative-log EC50 (pEC50) was at least 7.00.

The compound `CNC(=O)c1ccc(-n2c(=O)c3c(n4ncc(Cc5ccc(C#N)cc5)c24)CN(C(=O)c2ccc(Cl)c(Cl)c2)CC3)cc1` [Compound 48, 4-[5-[(4-cyanophenyl)methyl]-12-(3,4-dichlorobenzoyl)-8-oxo-2,3,7,12-tetrazatricyclo [7.4.0.0 2,6]trideca-1(9),3,5-trien-7-yl]-N-methyl-benzamide] showed a pEC50 of at least 7.00.

As to `CNC(=O)c1ccc(-n2c(=O)c3c(n4ncc(NCc5ccc(OC(F)F)cc5)c24)CN(C(=O)c2ccc(Br)c(Cl)c2)CC3)cc1` [Compound 46, 4-[12-(4-bromo-3-chloro-benzoyl)-5-[[4-(difluoromethoxy)phenyl]methylamino]-8-oxo-2,3,7,12-tetrazatricyclo [7.4.0.0 2,6]trideca-1(9),3,5-trien-7-yl]-N-methyl-benzamide], the negative logarithm of the EC50 (pEC50) is at least 7.00.

`CC(C)c1cnn2c3c(c(=O)n(-c4ccccc4)c12)CCN(C(=O)c1ccc(Br)c(Cl)c1)C3` [Compound 13, 12-(4-bromo-3-chlorobenzoyl)-5-isopropyl-7-phenyl-2,3,7,12-tetraazatricyclo[7.4.0.0^[2,6]]trideca-1(9),3,5-trien-8-one] gave a negative logarithm of the EC50 (pEC50) of 5.30 to 6.30.

Consider `CNC(=O)c1ccc(-n2c(=O)c3c(n4ncc(Nc5ccc(F)cc5)c24)CN(C(=O)c2ccc(Br)c(Cl)c2)CC3)cc1` [Compound 54, 4-[12-(4-bromo-3-chloro-benzoyl)-5-(4-fluoroanilino)-8-oxo-2,3,7,12-tetrazatricyclo [7.4.0.0 2,6]trideca-1(9),3,5-trien-7-yl]-N-methyl-benzamide], for which the negative-log EC50 (pEC50) is at least 7.00.

Compound `CNC(=O)c1ccc(-n2c(=O)c3c(n4ncc(NCc5ccccc5F)c24)CN(C(=O)c2ccc(Br)c(Cl)c2)CC3)cc1` [Compound 66, 4-[12-(4-bromo-3-chloro-benzoyl)-5-[(2-fluorophenyl)methylamino]-8-oxo-2,3,7,12-tetrazatricyclo [7.4.0.0 2,6]trideca-1(9),3,5-trien-7-yl]-N-methyl-benzamide] gave a negative logarithm of the EC50 (pEC50) of at least 7.00.

As for `CNC(=O)c1ccc(-n2c(=O)c3c(n4ncc([C@@H](C)c5ccccc5)c24)CN(C(=O)c2ccc(Br)c(C#N)c2)CC3)cc1` (stereo in doubt) [Compound 58, 4-[12-(4-bromo-3-cyano-benzoyl)-8-oxo-5-[rac-(1S)-1-phenylethyl]-2,3,7,12-tetrazatricyclo [7.4.0.0 2,6]trideca-1(9),3,5-trien-7-yl]-N-methyl-benzamide], the pEC50 was at least 7.00.

Regarding `O=C(c1ccc(Br)c(Cl)c1)N1CCc2c(n3ncc(Cc4ccccc4)c3n(-c3ccc(-n4cccn4)cc3)c2=O)C1` [Compound 77, 5-benzyl-12-(4-bromo-3-chloro-benzoyl)-7-(4-pyrazol-1-ylphenyl)-2,3,7,12-tetrazatricyclo [7.4.0.0 2,6] trideca-1(9),3,5-trien-8-one], the pEC50 was under 5.30.

Still in this assay, the particulars now being: intracellular HBV DNA by qPCR, 3 days incubation.
`O=C(c1ccc(Br)c(Cl)c1)N1CCc2c(n3nc(Cc4ccccc4)cc3n(-c3ccccc3)c2=O)C1` [Compound 11, 4-benzyl-12-(4-bromo-3-chlorobenzoyl)-7-phenyl-2,3,7,12-tetraazatricyclo[7.4.0.0^[2,6]]trideca-1(9),3,5-trien-8-one] had a pEC50 of under 5.30.

For `CC(C)NC(=O)c1cnn2c3c(c(=O)n(-c4ccccc4)c12)CCN(C(=O)c1ccc(Cl)c(Cl)c1)C3` [Compound 16, 12-(3,4-dichlorobenzoyl)-N-isopropyl-8-oxo-7-phenyl-2,3,7,12-tetraazatricyclo[7.4.0.0^[2,6]]trideca-1(9),3,5-triene-5-carboxamide], the negative-log EC50 (pEC50) was under 5.30.

In turn, `COc1ccc(-n2c(=O)c3c(n4ncc(NCc5ccccc5)c24)CN(C(=O)c2ccc(Cl)c(Cl)c2)CC3)cc1` [Compound 25, 5-(benzylamino)-12-(3,4-dichlorobenzoyl)-7-(4-methoxyphenyl)-2,3,7,12-tetraazatricyclo[7.4.0.0^[2,6]]trideca-1(9),3,5-trien-8-one] gave a negative logarithm of the EC50 (pEC50) of at least 7.00.

In the case of `CNC(=O)c1ccc(-n2c(=O)c3c(n4ncc(Cc5ccccc5)c24)CN(C(=O)c2ccc(Br)c(Cl)c2)C(C)C3)cc1` (single isomer, unassigned) [Compound 71, 4-[(11R*)-5-benzyl-12-(4-bromo-3-chlorobenzoyl)-11-methyl-8-oxo-2,3,7,12-tetraazatricyclo[7.4.0.0^[2,6]]trideca-1(9),3,5-trien-7-yl]-N-methylbenzamide], the pEC50 was at least 7.00.

For `CNC(=O)c1ccc(-n2c(=O)c3c(n4ncc(Cc5ccccc5)c24)CN(C(=O)c2ccc(Br)c(Cl)c2)C(C)C3)cc1` (single isomer, unassigned) [Compound 72, 4-[(11S*)-5-benzyl-12-(4-bromo-3-chlorobenzoyl)-11-methyl-8-oxo-2,3,7,12-tetraazatricyclo[7.4.0.0^[2,6]]trideca-1(9),3,5-trien-7-yl]-N-methylbenzamide], the negative logarithm of the EC50 (pEC50) was at least 7.00.
